# Measurements reported in US8173652B2, “Isoxazole-isoxazoles and isoxazole-isothiazoles” (Hoffmann-La Roche Inc., priority 2009, dated 2012).
# pKi: −log10 of the molar value.
# Molecular target: T1, human GABA A receptor α5β3γ2 (Homo sapiens, UniProt P18507+P31644)
# T1 construct: expressed in transfected cells; host or cells: HEK293 (transiently transfected), membrane preparation
# Test: [3H]flumazenil competition binding assay, human GABA A α5 receptor
# Settings: human α5β3γ2 receptors transiently transfected in HEK293 cells; displacement of [3H]flumazenil 0.5 nM; 1 hour at 4° C.; means of two determinations; read-out: hKi GABA A α5
# Procedure: Membrane Preparation and Binding Assay
# The affinity of compounds at GABA A receptor subtypes was measured by competition for [3H]flumazenil (85 Ci/mmol; Roche) binding to HEK293 cells expressing rat (stably transfected) or human (transiently transfected) receptors of composition α1β3γ2, α2β3γ2, α3β3γ2 and α5β3γ2.
# Cell pellets were suspended in Krebs-tris buffer (4.8 mM KCl, 1.2 mM CaCl2, 1.2 mM MgCl2, 120 mM NaCl, 15 mM Tris; pH 7.5; binding assay buffer), homogenized by polytron for ca. 20 sec on ice and centrifuged for 60 min at 4° C. (50000 g; Sorvall, rotor: SM24=20000 rpm). The cell pellets were re-suspended in Krebs-tris buffer and homogenized by polytron for ca. 15 sec on ice. Protein was measured (Bradford method, Bio-Rad) and aliquots of 1 mL were prepared and stored at −80° C.
# Radioligand binding assays were carried out in a volume of […] (96-well plates) which contained […] of cell membranes, [^3H]flumazenil at a concentration of 1 nM for α1, α2 and α3 subunits and 0.5 nM for α5 subunits and the test compound in the range of […]. Nonspecific binding was defined by 10^−5 M diazepam and typically represented less than 5% of the total binding. Assays were incubated to equilibrium for 1 hour at 4° C. and harvested onto GF/C uni-filters (Packard) by filtration using a Packard harvester and washing with ice-cold wash buffer (50 mM Tris; pH 7.5). After drying, filter-retained radioactivity was detected by liquid scintillation counting. Ki values were calculated using Excel-Fit (Microsoft) and are the means of two determinations.
row,SMILES,pKi
1,"Cc1onc(-c2ccccc2)c1COc1cc(C(=O)NC(C)CO)on1 (single isomer, unassigned) [Example 9, (S or R)-3-(5-Methyl-3-phenyl-isoxazol-4-ylmethoxy)-isoxazole-5-carboxylic acid (2-hydroxy-1-methyl-ethyl)-amide]",7.64
2,"CCCCc1noc(C)c1COc1cc(C(=O)NC(C)C)on1 [Example 28, 3-(3-Butyl-5-methyl-isoxazol-4-ylmethoxy)-isoxazole-5-carboxylic acid isopropylamide]",7.61
3,"Cc1onc(-c2ccccc2)c1COc1cc(C(=O)NC(C)CO)on1 (single isomer, unassigned) [Example 8, (R or S)-3-(5-Methyl-3-phenyl-isoxazol-4-ylmethoxy)-isoxazole-5-carboxylic acid (2-hydroxy-1-methyl-ethyl)-amide]",7.87
4,"CC(C)NC(=O)c1cc(OCc2c(-c3ccc(F)cc3)noc2CO)no1 [Example 43, 3-[3-(4-Fluoro-phenyl)-5-hydroxymethyl-isoxazol-4-ylmethoxy]-isoxazole-5-carboxylic acid isopropylamide]",8.06
5,"O=C(NCC(F)(F)F)c1cc(OCc2c(-c3ccc(F)cc3)noc2CO)no1 [Example 45, 3-[3-(4-Fluoro-phenyl)-5-hydroxymethyl-isoxazol-4-ylmethoxy]-isoxazole-5-carboxylic acid (2,2,2-trifluoro-ethyl)-amide]",8.00

# These reach a higher pKi. Values come first.
row,pKi,SMILES
1,8.10,"Cc1onc(-c2ccccc2)c1COc1cc(C(=O)NCCO)on1 [Example 5, 3-(5-Methyl-3-phenyl-isoxazol-4-ylmethoxy)-isoxazole-5-carboxylic acid (2-hydroxy-ethyl)-amide]"
2,8.36,"Cc1onc(-c2ccccc2)c1COc1cc(C(=O)NC2CCOC2)on1 (stereo not shown) [Example 4, 3-(5-Methyl-3-phenyl-isoxazol-4-ylmethoxy)-isoxazole-5-carboxylic acid (tetrahydro-furan-3-yl)-amide]"
3,8.42,"Cc1onc(-c2ccc(F)cn2)c1COc1cc(C(=O)NC2CCOC2)sn1 (stereo not shown) [Example 40, 3-[3-(5-Fluoro-pyridin-2-yl)-5-methyl-isoxazol-4-ylmethoxy]-isothiazole-5-carboxylic acid (tetrahydro-furan-3-yl)-amide]"
4,8.77,"Cc1onc(-c2ccc(F)cn2)c1COc1cc(C(=O)NC(C)C)on1 [Example 22, 3-[3-(5-Fluoro-pyridin-2-yl)-5-methyl-isoxazol-4-ylmethoxy]-isoxazole-5-carboxylic acid isopropylamide]"
5,8.85,"Cc1onc(-c2ccccn2)c1COc1cc(C(=O)NC2CCOC2)on1 (stereo not shown) [Example 16, 3-(5-Methyl-3-pyridin-2-yl-isoxazol-4-ylmethoxy)-isoxazole-5-carboxylic acid (tetrahydro-furan-3-yl)-amide]"
